According to patent US20090131468A1, “Bis-(Sulfonylamino) Derivatives in Therapy 065” (AstraZeneca AB, priority 2007, published 2009):
pIC50: −log10 of the molar value.

biological target: T1, human mPGES-1 (Homo sapiens, UniProt O14684); experiment: Microsomal prostaglandin E synthase biochemical assay; conditions: microsome preparation containing human mPGES-1; PGH2 10.8 μM, GSH 2.5 mM, pH 6.8; PGE2 quantified by HTRF; average of at least n=2
T1 sequence (O14684 1-152): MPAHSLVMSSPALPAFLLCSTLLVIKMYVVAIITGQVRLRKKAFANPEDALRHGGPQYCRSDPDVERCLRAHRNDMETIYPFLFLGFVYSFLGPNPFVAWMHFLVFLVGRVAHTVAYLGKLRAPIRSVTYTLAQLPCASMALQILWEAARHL
Description: Compounds were tested as inhibitors of microsomal prostaglandin E synthase activity in microsomal prostaglandin E synthase assays and whole cell assays. These assays measure prostaglandin E2 (PGE2) synthesis which is taken as a measure of prostaglandin E synthase activity. Microsomal prostaglandin E synthase biochemical assays used microsomal prostaglandin E synthase-1 in microsomal preparations. The source of the microsomes can be for example interleukin-1β-stimulated human A549 cells (which express human mPGES-1) or Sf9 cells transfected with plasmids encoding human mPGES-1 cDNA.
A solution of test compound was added to a diluted microsome preparation containing human mPGES-1 and pre-incubated for 15 minutes in potassium phosphate buffer pH 6.8 with cofactor glutathione (GSH). Corresponding solutions without test compound were used as positive controls, and corresponding solutions without test compound and without microsomes were used as negative controls. The enzymatic reaction was then started by addition of the substrate PGH2 in an organic solution (dry acetonitrile).
The reaction was stopped after one minute by adding an acidic solution (pH 1.9) of ferric chloride and citrate (final concentrations 7 mM and 47 mM respectively), by which the PGH2 was sequestered (the PGH2 is reduced to mainly 12-hydroxy heptadecatrineoic acid (12-HHT) which is not detected by the subsequent PGE2 detection step). The resulting solution was then pH neutralized by addition of potassium phosphate buffer, prior to diluting an aliquot of the resulting solution in a weak potassium phosphate buffer (50 mM, pH 6.8) containing 0.2% BSA (w/v). […] The PGE2 formed was quantified by use of a commercial HTRF based kit (catalogue #62PG2PEC or #62P2APEC from Cisbio International). 100% activity was defined as the PGE2 production in positive controls subtracted by the PGE2 production in the negative controls. IC50 values were then determined using standard procedures.

SMILES | pIC50
C=C(C)C#Cc1ccc(C(=O)NS(=O)(=O)c2ccccc2S(N)(=O)=O)cc1 [Example 54, 4-(3-Methylbut-3-en-1-ynyl)-N-(2-sulfamoylphenylsulfonyl)benzamide] | 7.21
Cc1nc(-c2ccc(C(F)(F)F)cc2)sc1C(=O)NS(=O)(=O)c1ccccc1S(N)(=O)=O [Example 26, 4-Methyl-N-(2-sulfamoylphenyl)sulfonyl-2-[4-(trifluoromethyl)phenyl]1,3-thiazole-5-carboxamide] | 6.92
NS(=O)(=O)c1ccccc1S(=O)(=O)NC(=O)c1ccc(-c2cccc(C(F)(F)F)c2)o1 [Example 37, N-(2-Sulfamoylphenyl)sulfonyl-5-[3-(trifluoromethyl)phenyl]furan-2-carboxamide] | 5.96
NS(=O)(=O)c1ccccc1S(=O)(=O)NC(=O)c1ccc(C#CC2CCCC2)nc1 [Example 93, 6-(Cyclopentylethynyl)-N-(2-sulfamoylphenylsulfonyl)nicotinamide] | 7.24
NS(=O)(=O)c1ccccc1S(=O)(=O)NC(=O)c1ccc(-c2cc3ccccc3o2)cn1 [Example 1, 5-Benzofuran-2-yl-N-(2-sulfamoylphenyl)sulfonyl-pyridine-2-carboxamide] | 6.62
NS(=O)(=O)c1ccccc1S(=O)(=O)NC(=O)c1cccc(C#CC2CCCC2)c1 [Example 66, 3-(Cyclopentylethynyl)-N-(2-sulfamoylphenylsulfonyl)benzamide] | 6.66
NS(=O)(=O)c1ccccc1S(=O)(=O)NC(=O)c1ccc(C#CC2CCCCC2)c(CO)c1 [Example 101, 4-(Cyclohexylethynyl)-3-(hydroxymethyl)-N-(2-sulfamoylphenylsulfonyl)benzamide] | 7.32
NS(=O)(=O)c1ccccc1S(=O)(=O)NC(=O)c1ccc2[nH]c(Cc3ccccc3)cc2c1 [Example 158, 2-Benzyl-N-(2-sulfamoylphenylsulfonyl)-1H-indole-5-carboxamide] | 6.24
NS(=O)(=O)c1ccccc1S(=O)(=O)NC(=O)c1ccc(OCc2ccccc2)cc1 [Example 30, 4-Phenylmethoxy-N-(2-sulfamoylphenyl)sulfonyl-benzamide] | 6.80
COc1ccccc1-c1cc2cc(C(=O)NS(=O)(=O)c3ccccc3S(N)(=O)=O)ccc2o1 [Example 120, 2-(2-Methoxyphenyl)-N-(2-sulfamoylphenylsulfonyl)benzofuran-5-carboxamide] | 7.55
COc1cc(C(=O)NS(=O)(=O)c2ccccc2S(N)(=O)=O)cnc1C#Cc1ccc(C(F)(F)F)cc1 [Example 139, 5-Methoxy-N-(2-sulfamoylphenylsulfonyl)-6-((4-(trifluoromethyl)phenyl)-ethynyl)nicotinamide] | 8.17
NS(=O)(=O)c1ccccc1S(=O)(=O)NC(=O)c1cnc(-c2cc3ccccc3o2)c(Cl)c1 [Example 147, 6-(Benzofuran-2-yl)-5-chloro-N-(2-sulfamoylphenylsulfonyl)nicotinamide] | 7.27
COc1cc(-c2cc3ccccc3o2)ccc1C(=O)NS(=O)(=O)c1ccccc1S(N)(=O)=O [Example 48, 4-(Benzofuran-2-yl)-2-methoxy-N-(2-sulfamoylphenylsulfonyl)benzamide] | 6.82
NS(=O)(=O)c1ccccc1S(=O)(=O)NC(=O)[C@H]1CC[C@@H](c2cc3ccccc3o2)CC1 [Example 105, (1s,4s)-4-(Benzofuran-2-yl)-N-(2-sulfamoylphenylsulfonyl)cyclohexanecarboxamide] | 5.68
NS(=O)(=O)c1ccccc1S(=O)(=O)NC(=O)c1ccc(F)c(Br)c1 [Example 20, 3-Bromo-4-fluoro-N-(2-sulfamoylphenyl)sulfonyl-benzamide] | 6.23
C[C@]1(C(=O)NS(=O)(=O)c2ccccc2S(N)(=O)=O)CC[C@H](c2cc3ccccc3o2)CC1 [Example 108, (1r,4r)-4-(Benzofuran-2-yl)-1-methyl-N-(2-sulfamoylphenylsulfonyl)cyclohexane-carboxamide] | 5.15
Cc1nc(-c2ccc(Cl)cc2)sc1C(=O)NS(=O)(=O)c1ccccc1S(N)(=O)=O [Example 28, 2-(4-Chlorophenyl)-4-methyl-N-(2-sulfamoylphenyl)sulfonyl-1,3-thiazole-5-carboxamide] | 7.36
NS(=O)(=O)c1ccccc1S(=O)(=O)NC(=O)[C@H]1CC[C@H](c2cc3ccccc3o2)CC1 [Example 106, (1r,4r)-4-(Benzofuran-2-yl)-N-(2-sulfamoylphenylsulfonyl)cyclohexanecarboxamide] | 6.85
NS(=O)(=O)c1ccccc1S(=O)(=O)NC(=O)c1ccc2oc(C3CC3)cc2c1 [Example 126, 2-Cyclopropyl-N-(2-sulfamoylphenylsulfonyl)benzofuran-5-carboxamide] | 6.59
Cc1cc(-c2cc3ccccc3o2)ccc1C(=O)NS(=O)(=O)c1ccccc1S(N)(=O)=O [Example 46, 4-(Benzofuran-2-yl)-2-methyl-N-(2-sulfamoylphenylsulfonyl)benzamide] | 7.34
NS(=O)(=O)c1ccccc1S(=O)(=O)NC(=O)c1ccc(-c2ccc(Cl)c(Cl)c2)o1 [Example 36, 5-(3,4-Dichlorophenyl)-N-(2-sulfamoylphenyl)sulfonyl-furan-2-carboxamide] | 6.55
COCCOCCOc1cc(C(=O)NS(=O)(=O)c2ccccc2S(N)(=O)=O)ccc1C#CC(C)(C)C [Example 118, 4-(3,3-Dimethylbut-1-ynyl)-3-(2-(2-methoxyethoxy)ethoxy)-N-(2-sulfamoylphenyl-sulfonyl)benzamide] | 6.21
CCC(C)(O)C#Cc1ccc(C(=O)NS(=O)(=O)c2ccccc2S(N)(=O)=O)cc1 (stereo not drawn) [Example 57, 4-(3-Hydroxy-3-methylpent-1-ynyl)-N-(2-sulfamoylphenylsulfonyl)benzamide] | 5.06
COc1c(-c2cc3ccccc3o2)ccc(C(=O)NS(=O)(=O)c2ccccc2S(N)(=O)=O)c1F [Example 87, 4-(Benzofuran-2-yl)-2-fluoro-3-methoxy-N-(2-sulfamoylphenylsulfonyl)benzamide] | 7.80
NS(=O)(=O)c1ccccc1S(=O)(=O)NC(=O)c1ccc(Cl)cc1Cc1ccccc1 [Example 24, 2-Benzyl-4-chloro-N-(2-sulfamoylphenyl)sulfonyl-benzamide] | 5.27
NS(=O)(=O)c1ccccc1S(=O)(=O)NC(=O)c1ccc(Br)cc1O [Example 49a, 4-Bromo-2-hydroxy-N-(2-sulfamoylphenylsulfonyl)benzamide] | 6.27
Cc1cc(Br)ccc1C(=O)NS(=O)(=O)c1ccccc1S(N)(=O)=O [Example 15, 4-Bromo-2-methyl-N-(2-sulfamoylphenyl)sulfonyl-benzamide] | 5.70
COCCOCCOc1cc(C(=O)NS(=O)(=O)c2ccccc2S(N)(=O)=O)ccc1-c1cc2ccccc2o1 [Example 119, 4-(Benzofuran-2-yl)-3-(2-(2-methoxyethoxy)ethoxy)-N-(2-sulfamoylphenylsulfonyl)-benzamide] | 7.77
Cc1nc(-c2cccc(Cl)c2)sc1C(=O)NS(=O)(=O)c1ccccc1S(N)(=O)=O [Example 42, 2-(3-Chlorophenyl)-4-methyl-N-(2-sulfamoylphenyl)sulfonyl-1,3-thiazole-5-carboxamide] | 6.96
NS(=O)(=O)c1ccccc1S(=O)(=O)NC(=O)c1ccc(C#CC2CCCC2)cc1 [Example 65, 4-(Cyclopentylethynyl)-N-(2-sulfamoylphenylsulfonyl)benzamide] | 7.85
